Where two headings read alike, the source gives them in different places.
How the values were obtained:
[1] = test system: T. brucei brucei Lister 427; test: Trypanosome replication assay; format: cell-based, Trypanosoma brucei brucei; conditions: Trypanosoma brucei
T. cruzi = T. cruzi growth inhibition; format: cell-based, Trypanosoma cruzi; conditions: Trypanosoma cruzi
L. major promastigote = L. major promastigote assay; format: cell-based; conditions: Leishmania major
P. falciparum D6 = P. falciparum D6 assay; format: cell-based; conditions: Plasmodium falciparum; strain D6
P. falciparum W2 = P. falciparum W2 assay; format: cell-based; conditions: Plasmodium falciparum; strain W2; read-out: P. falciparum W2 (EC50)
P. falciparum C235 = P. falciparum C235 assay; format: cell-based; conditions: Plasmodium falciparum; strain C235; read-out: P. falciparum C235 (EC50)
[2] = Thermodynamic aqueous solubility; format: physicochemical
in vitro = conditions: for fraction unbound at 4 h, 5 μM: mice plasma
Protocol: Mice plasma (BALB/c mice, male—pool of 3 animals) was collected in-house using K2EDTA as anticoagulant. […] Glipizide (Cat #50402G) was purchased from Apin chemicals, Abingdon, Oxon. Albendazole (Cat #A4673) was purchased from Sigma. Phosphate buffered saline pH 7.4 (0.1 M sodium phosphate and 0.15 M sodium chloride) and RED device inserts were procured from Thermo Scientific, Meridian Rd., Rockford, Ill.
Further 1 mM stock was diluted 200-fold in mice plasma to prepare a concentration of 5 μM. The final DMSO concentration in plasma was 0.5%.
Rapid equilibrium dialysis was performed with a rapid equilibrium dialysis (RED) device containing dialysis membrane with a molecular weight cut-off of 8,000 Daltons. Each dialysis insert contains two chambers. The red chamber is for plasma while the white chamber is for buffer. A 200 μL aliquot of warfarin or test compound at 5 μM (triplicates) was separately added to the plasma chamber and 350 μL of phosphate buffer saline (pH 7.4) was added to the buffer chamber of the inserts. After sealing the RED device with an adhesive film, dialysis was performed at 37° C. with shaking at 100 rpm for 4 hours as per manufacturer's recommendation.
Recovery and stability: A 50 μL aliquot of warfarin or test compound was added to four 0.5 mL microfuse tubes. Two aliquots were frozen immediately (0 minute sample). The other two aliquots were incubated at 37° C. for 4 hours along with the RED device.
Following dialysis, an aliquot of 50 μL was removed from each well (both plasma and buffer side) and diluted with equal volume of opposite matrix (dialyzed with the other matrix) to nullify the matrix effect. Similarly, 50 μL of buffer was added to recovery and stability samples. An aliquot of 100 μL was submitted for LC-MS/MS analysis.
A 25 μL aliquot of warfarin and test compounds were crashed with 100 μL of acetonitrile containing internal standard (glipizide for warfarin and test compound) and vortexed for 5 minutes. The samples were centrifuged at 15,000 rpm at 4° C. for 10 min and 100 μL of supernatant was submitted for LCMS/MS analysis. Samples were monitored for parent compound in MRM mode using LC-MS/MS.

T. brucei brucei CA427 = test: Drug efficacy in a mouse model of human African trypanosomiasis
Description: (§1) The kinetoplast and nucleus can be tracked by microscopy during the cell cycle, which begins with trypanosomes harboring one nucleus (1N) and one kinetoplast (1K) (i.e., 1K1N cells). A kinetoplast that is replicating its (DNA) (i.e., kDNA) and increasing the organelle's mass is observed as an elongated kinetoplast (1Ke). Fission (segregation) of 1Ke kinetoplasts into two daughter kinetoplasts (2K) inside the same cell is coincident with the nuclear S-phase and produces 2K1N trypanosomes. Mitosis then occurs, yielding trypanosomes containing two kinetoplasts and two nuclei (2K2N). Following cell division, each daughter trypanosome has a 1K1N configuration of the organelles.
Swiss Webster (female) mice, aged 8-10 weeks, were intraperitoneally inoculated with 10^3 T. brucei CA427 strain using a 1 ml hypodermic syringe and 26G ½″ needle (day 0). The mice were assigned to control or NEU617 -treated groups (four per group). Treatment was initiated one-day post infection for two weeks. Control group received the vehicle only. Drug-treated mice were given 10 mg/kg NEU617 twice daily at 12 h interval (orally or intraperitoneally) based on their body weights. NEU617 was reconstituted in (i) DMSO for intraperitoneal (I.P.) administration, and (ii) N-methyl-2-pyrrolidone and polyethylene glycol 300 (1:9, v/v) for oral (P.O.) dosing. Drugs were prepared fresh daily and the concentration was adjusted so that the animals received <200 μl of solvent/dose/animal. […] Further dilutions of blood were made with bicine-buffered saline with glucose, as needed. Animals showing distress symptoms at any stage of the study were euthanized. All experiments were conducted following protocols approved by the Institutional Animal Care and Use Committee (IACUC).

T. brucei = test: Trypanosome DNA content and organelle (cell cycle) analysis; format: cell-based
Description: as §1

[3] = Protein binding (Table 14); conditions: plasma

Fc1cccc(COc2ccc(Nc3ncnc4ccc(-c5cccc(N6CCOCC6)c5)cc34)cc2Cl)c1 [Compound 23a, N-(3-Chloro-4-((3-fluorobenzyl)oxy)phenyl)-6-(3-morpholinophenyl)quinazolin-4-amine]
EC50 ([1]; 48 h, concentration giving 50% inhibition of growth of T brucei brucei Lister 427 cells, 48 h, values ±7%, read-out: Tbb EC50): 0.042 µM
EC50 ([1]; read-out: EC50 expressed as ng/mL, T. brucei EC50 converted, FIG. 1 legend): 22.7 ng/mL
EC50 (T. cruzi): 1.8 µM
EC50 (L. major promastigote): 3 µM
EC50 (P. falciparum D6): 0.23 µM
EC50 (P. falciparum W2): 0.68 µM
EC50 (P. falciparum C235): 0.37 µM
Solubility [2]: <1 µM
recovery at 4 h, 5 μM (in vitro; male, BALB/c, mouse, pH 7.4): 100%
% Bound Mean (SD) (in vitro; male, BALB/c, mouse, plasma, pH 7.4): 99.6%
fraction unbound at 4 h, 5 μM (in vitro; male, BALB/c, mouse, plasma, pH 7.4, % Bound R1, replicate 1, 37° C.): 0.005
fraction unbound at 4 h, 5 μM (in vitro; male, BALB/c, mouse, plasma, pH 7.4, % Bound R2, replicate 2, 37° C.): 0.003
% compound remaining at 4 h (in vitro; plasma stability, 37° C.): 85%
delay of detection of trypanosomes in the blood (T. brucei brucei CA427; 10 mg/kg twice per day ip): 24 h
survival on day 8 (T. brucei brucei CA427; 10 mg/kg twice per day ip, all untreated mice had died): all alive
mouse survival life span (T. brucei brucei CA427; 10 mg/kg twice per day ip, control group 5 days): 9 days
time without parasites detected in the blood of infected mice (T. brucei brucei CA427; 40 mg/kg once per day from 24 h after infection, control positive on day 2): 3 days
drug-related toxicity (T. brucei brucei CA427; multiday regimen at 40 mg/kg): drug-related toxicity was observed
effect on kinetoplast, nucleus and cytokinesis (single cell microscopy) (T. brucei): blocks duplication of the kinetoplast and arrests cytokinesis without inhibiting division of the trypanosome nucleus
proportion of cells with 4C DNA (T. brucei; 7 h incubation, 25% without drug): 40%
fraction of cells with 2C-4C equivalents of DNA (T. brucei; 7 h incubation, 40% without drug): 25%
Human liver microsomes median CLint: 63.03 µL/min/mg
fraction unbound [3]: < 0.01

From patent US20150259331A1, “PROTOZOAN PARASITE GROWTH INHIBITORS” (Northeastern University, priority 2014, published 2015)
